Measured values taken from patent publication US20050136079A1, “Cosmetic compositions containing fullerene clusters” (priority 2003, published 2005).

Experiment: Antioxidant activity (AOA) by coulometric titration with electrogenerated bromine-based oxidants
Settings: Coulombs spent for titration of 100 g of analyzed material; sample macerated 1:5 in water or water/alcohol
Procedure: The quantitative assessment of the antioxidant activity of the cosmetic composition containing fullerene clusters was tested utilizing bromine-based oxidants generated electrochemically.
Procedure: • 1. Electrogeneration of bromine-based oxidants and coulonometric tritration were performed with a potentiostate using 1 cm^2 platinum working electrode at a current 5 mA • 2. Bromine oxidant was generated 0.2 M KBr dissolved in 0.1M H2SO4/tartrate buffer solution, which ensure 100% yield of oxidant by current. The final point was determined amperometrically with two polarized platinum electrodes at E=20 mV. • 3. Samples for analysis in water or water/alcohol media were obtained by maceration of the mixture of a cosmetic containing the active ingredient listed in the following table and this media taken in proporation 1:5 by weight. • 4. Antioxidant activity (AOA) is expressed as amount of Coulombs spent for titration of 100 g of the analyzed starting cosmetic substance.
Bromine compounds including Br2, Br3^− and active bromo-radicals are electrochemically generated and adsorbed at the surface of the platinum electrode and then these radicals act as oxidating agents in redox reactions, reactions of electrophilic substitution and addition to double bonds e.g. in the fullerene molecules in the fullerene cluster of cosmetic composition. […]

SMILES: CCCCC/C=C\C/C=C\CCCCCCCC(=O)O [Linoleic Acid without C60, Linoleic Acid]
- AOA: 4.8 kCb/100 g
